Laboratory results taken from patent EP4289427A1, “DIHYDRO[1,8]NAPHTHYRIDIN-7-ONE AND PYRIDO[3,2-B][1,4]OXAZIN-3-ONE FOR USE IN TREATING CANCER, AND METASTASES IN PARTICULAR” (Anagenesis Biotechnologies, priority 2022, dated 2023).

Legend:
[1] = test system: MDA-MB-231 cells; assay: Cytotoxicity assay (CellTiter-Glo 2.0) on MDA-MB-231 cells; assay type: cell-based, Human; conditions: incubation 3 days; for IC50: Homo sapiens, 72 h; on Cytotoxicity: test concentration or dose not given here
Outline: (§1)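 Each line is plated at a defined density in its growth medium and treated with test compounds for a duration set per cell line. Remaining viability is then measured by CellTiter-Glo 2.0 ATP luminescence and expressed as relative IC50.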

[2] = test system: EoL-1 cells; assay: Cytotoxicity assay (CellTiter-Glo 2.0) on EoL-1 cells; assay type: cell-based, Human; conditions: incubation 1 day; for IC50: Homo sapiens, EOL1, 24 h; on Cytotoxicity: test concentration or dose not given here
Outline: as §1

[3] = test system: RD cells; assay: Cytotoxicity assay (CellTiter-Glo 2.0) on RD cells; assay type: cell-based, Human; conditions: for IC50: Homo sapiens; on Cytotoxicity: test concentration or dose not given here
Outline: as §1

[4] = test system: HUVECs; assay: Tube formation assay (anti-angiogenic activity); assay type: cell-based, human; conditions: for IC50: Homo sapiens, HUVEC; on Angiogenesis inhibition: test concentration or dose not given here
Outline: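 HUVECs plated at 5000 cells/well on reduced growth factor basement membrane matrix, then exposed to compounds for 16 to 18 hours at 37°C. Cells stained with calcein-AM; tube networks imaged by confocal fluorescence microscopy and quantified.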

[5] = test system: 4T1 cells; assay: Cytotoxicity assay (CellTiter-Glo 2.0) on 4T1 cells; assay type: cell-based, Mouse; conditions: incubation 2 days; for IC50: Mus musculus, 48 h; on Cytotoxicity: test concentration or dose not given here
Outline: as §1

[6] = 2 day-treatment, commercial kinase inhibitors
[7] = 4 day-treatment, commercial kinase inhibitors
[8] = 48 h, 2 day-treatment, commercial kinase inhibitors
[9] = 96 h, 4 day-treatment, commercial kinase inhibitors

Structure (SMILES)	IC50 [1]	Cytotoxicity [1]	IC50 [2]	Cytotoxicity [2]	Cytotoxicity ([3]; 2 day-treatment)	Cytotoxicity ([3]; 4 day-treatment)	IC50 ([3]; 48 h, 2 day-treatment)	IC50 ([3]; 96 h, 4 day-treatment)	IC50 ([4]; incubation 16 to 18 hours)	Angiogenesis inhibition ([4]; incubation 16 to 18 hours)	IC50 [5]	Cytotoxicity [5]	IC50 ([1]; commercial kinase inhibitors)	Cytotoxicity ([1]; commercial kinase inhibitors)	IC50 ([2]; commercial kinase inhibitors)	Cytotoxicity ([2]; commercial kinase inhibitors)	Cytotoxicity [3, 6]	Cytotoxicity [3, 7]	IC50 [3, 8]	IC50 [3, 9]	also measured
CSc1cc(Oc2ccnc3c2OCC(=O)N3)ccc1NC(=O)Nc1cc(C(C)(C)C)nn1-c1ccc(CCN2CCOCC2)cc1 [Compound 052, 1-[5-tert-butyl-2-[4-[2-(morpholino)ethyl]phenyl]pyrazol-3-yl]-3-[2-methylsulfanyl-4-[(3-oxo-4H-pyrido[3,2-b][1,4]oxazin-8-yl)oxy]phenyl]urea]	1 to 5 µM	+++ (cytotoxicity ≥ 85%)	0.001 to 0.01 µM	+++ (cytotoxicity ≥ 85%)	++ (50% ≤ cytotoxicity < 85%)	++ (50% ≤ cytotoxicity < 85%)	1 to 5 µM	1 to 5 µM	< 0.1 µM	+++ (angiogenesis inhibition ≥ 80%)	< 1 µM	+++ (cytotoxicity ≥ 85%)									
CSc1cc(Oc2ccnc3c2OCC(=O)N3)ccc1NC(=O)Nc1cc(C(C)(C)C)nn1-c1ccc(CN2CCN(C)CC2)cc1 [Compound 054, 1-[5-tert-butyl-2-[4-[(4-methylpiperazin-1-yl)methyl]phenyl]pyrazol-3-yl]-3-[2-methylsulfanyl-4-[(3-oxo-4H-pyrido[3,2-b][1,4]oxazin-8-yl)oxy]phenyl]urea]	1 to 5 µM	+++ (cytotoxicity ≥ 85%)	0.001 to 0.01 µM	+++ (cytotoxicity ≥ 85%)	+++ (cytotoxicity ≥ 85%)	+++ (cytotoxicity ≥ 85%)	1 to 5 µM	1 to 5 µM	< 0.1 µM	+++ (angiogenesis inhibition ≥ 80%)	1 to 5 µM	+++ (cytotoxicity ≥ 85%)									
CNC(=O)c1cc(Oc2ccc(NC(=O)Nc3ccc(Cl)c(C(F)(F)F)c3)c(F)c2)ccn1 [Regorafenib, reference compound]													1 to 5 µM	++ (50 % ≤ cytotoxicity < 85 %)	0.001 to 0.01 µM	+++ (cytotoxicity ≥ 85%)	+ (20 % ≤ cytotoxicity < 50 %)	+ (20 % ≤ cytotoxicity < 50 %)	5 to 10 µM	1 to 5 µM	IC50 ([4]; commercial kinase inhibitors): < 0.1 µM; Angiogenesis inhibition ([4]; commercial kinase inhibitors): ++ (80% > angiogenesis inhibition ≥ 50%); IC50 ([5]; commercial kinase inhibitors): 5 to 10 µM; Cytotoxicity ([5]; commercial kinase inhibitors): ++ (50 % ≤ cytotoxicity < 85 %)
CNC(=O)c1cc(Oc2ccc(NC(=O)Nc3ccc(Cl)c(C(F)(F)F)c3)cc2)ccn1 [Sorafenib, reference compound]													5 to 10 µM	+++ (cytotoxicity ≥ 85 %)	< 0.001 µM	+++ (cytotoxicity ≥ 85%)	++ (50 % ≤ cytotoxicity < 85 %)	++ (50 % ≤ cytotoxicity < 85 %)	≥ 10 µM	5 to 10 µM	IC50 ([4]; commercial kinase inhibitors): < 0.1 µM; Angiogenesis inhibition ([4]; commercial kinase inhibitors): + (50% > angiogenesis inhibition ≥ 20%); IC50 ([5]; commercial kinase inhibitors): 5 to 10 µM; Cytotoxicity ([5]; commercial kinase inhibitors): + (20 % ≤ cytotoxicity < 50 %)
